Measurements as given in US12208093B2 (THE JOHNS HOPKINS UNIVERSITY, priority 2016, dated 2025).
Entries after “also recorded” stand apart in the source; their conditions may differ. Where a name gives a salt, the structure may show the parent alone.

Legend:
[1] = tested on: pp28-luciferase HCMV Towne; test: Add on and removal studies; format: cell-based, human cytomegalovirus (HCMV); conditions: luciferase at 72 hpi
Method: Add on and removal studies. […] For time-of-removal studies, the medium containing the compounds was removed at 0, 6, 12, 24, 36 and 48 hpi, cells were washed three times with phosphate-buffered saline (PBS), and drug-free medium was added. Luciferase activity was determined at 72 hpi.

RPS14 and MDM2 = molecular target: T1, RPS14 and MDM2 (Homo sapiens, UniProt P62263+Q00987); test: Co-immunoprecipitation of RPS14 and MDM2; RPS14 expression and ubiquitination; format: cell-based
T1 construct: endogenous in cells; host or cells: Human foreskin fibroblasts (HFFs, ATCC CRL-2088), infected with HCMV Towne
Source text: SDS-polyacrylamide gel electrophoresis and immunoblot analysis. Cell lysates were quantified for protein content using bicinchoninic acid (BCA) protein assay kit (Pierce Chemical, Rockford, IL). Equivalent amount of proteins were used for Western blot analysis as described previously. Protein bands were visualized by chemiluminescence using Western Blotting Luminol Reagent (Santa Cruz Biotechnology, Santa Cruz, CA). The following antibodies were used for detection of HCMV proteins: mouse anti-IE1 and IE2, (MAb810); mouse anti-UL44 (Santa Cruz biotechnology Santa Cruz, CA); mouse monoclonal anti-pp65 (Vector laboratories, Burlingame, CA); mouse monoclonal anti-β-actin antibody (Millipore, Billerica, MA); rabbit polyclonal anti-RPS14 and mouse monoclonal anti-MDM2 (AbCam, Cambridge, UK), mouse monoclonal anti-p53 (Santa Cruz, CA); horseradish peroxidase (HRP)-conjugated goat anti-rabbit IgG (Cell Signaling); and HRP-conjugated sheep anti-mouse IgG, (GE Healthcare, Waukesha, WI). For detection of co-immunoprecipitated proteins, protein A-HRP conjugate (Cell Signaling Technologies, Beverly, MA) was used as secondary antibody to eliminate the interfering IgG bands.
Co-immunoprecipitation (IP) and immunoblotting. Non-infected, infected or emetine-treated HFFs were treated with MG132 (10 μM) for 12 h. […] 1 mg of lysate was precleared with bead slurry for 30 min. The precleared lysates were incubated with anti-MDM2 (2 μg) antibody overnight. The antibody complexes were isolated using protein A/G beads (Santa Cruz), washed three times with 50% IP buffer. The immunoprecipitate—protein A/G beads were boiled in SDS sample buffer, and the supernatant was analyzed on SDS-PAGE gels after immunoblotting as described previously. […] Reverse IPs were performed by pulling down the precleared lysates with either anti-p53 antibody or anti-RPS14 antibody and detected with MDM2. […] In other experiments, transfected or treated HEK293 cell lysates were pulled-down with anti-IE2 antibody and detected with anti-MDM2 antibody and vice-versa for reverse IP.

[2] = tested on: HSV-2 (clinical isolates); test: HSV-2 plaque assay in HFFs; format: cell-based, herpes simplex virus 2; conditions: nM concentrations
Source text: (§1) Cell culture, virus infection and anti-viral assays.

[3] = tested on: HCMV in RPS14 knockdown cells; format: cell-based, human cytomegalovirus (HCMV); conditions: contact-inhibited RPS14 knockdown cells; luciferase first and second cycle, pp65 at 72 hpi; dihydrochloride hydrate
HCMV entry = test: Virus entry immunofluorescence assay for pp65; format: cell-based; conditions: emetine 75 nM, GCV 10 μM, CpG 2006 10 μM; added 24 h prior to infection; dihydrochloride hydrate
Method: Immunofluorescence. […] Compounds were diluted in serum-free medium and added to HFFs seeded on chamber slides 24 h prior to infection. After infection and treatment, cells were fixed, permeabilized, and air-dried. Cells were then incubated with mouse monoclonal anti-pp65 antibody at 37° C. in humidified chambers for 1 h, washed three times with 0.1% Tween 20 in PBS (PBST), incubated with rhodamine conjugated anti-mouse IgG (Sigma Chemical Co) at 37° C. in humidified chambers for 1 h, and washed with PBST (0.1% Tween 20). A drop of mount oil containing DAPI (4,6-diamidino-2-phenylindole) (Santa Cruz) was added to the slides before visualization with a Nikon Eclipse E-800 fluorescence microscope.

HCMV Towne = HCMV Towne plaque reduction assay in HFFs; format: cell-based, human cytomegalovirus (HCMV)
Source text: as §1

[4] = Cell viability (MTT) assay; conditions: human, non-infected HFFs
[5] = tested on: GCV-resistant pp28-luciferase HCMV (C607Y mutation in UL97); conditions: nM concentrations
Method: Viruses. The pp28-luciferase HCMV Towne strain was constructed as previously described. A GCV-resistant pp28-luciferase HCMV strain, with a C607Y mutation in UL97 was also used. The recombinant viruses express luciferase under the control of the late CMV gene promoter, pp28. Luciferase expression is strongly activated 48-72 hours post infection (hpi). The recombinant viruses provide a highly-sensitive and reproducible reporter system which correlates with the classic plaque reduction assay.
Cell culture, virus infection and anti-viral assays. Human Foreskin Fibroblasts (HFFs) passage 12-16 (ATCC, CRL-2088™) and mouse embryonic fibroblasts (MEFs) passage 9-14 (ATCC, CRL-1658™) were grown in Dulbecco's Modified Eagle Medium (DMEM) containing 10% fetal bovine serum (FBS) (Gibco, Carlsbad, CA) in a 5% CO2 incubator at 37° C. Infection with HCMV or HSV was performed in HFFs, and infection with mouse CMV was performed in MEFs. For HCMV, cells were seeded in either a 96-well plate or 100 mm culture plates (Corning Costar, Sigma Aldrich) at 0.5 or 2 million cells/plate. Following 90 minute adsorption, media was removed and cells were washed with PBS. Media containing 4% FBS and compounds were added to each well. […] Luciferase activity was measured 72 h following second cycle infection.

[6] = tested on: pp28-luciferase HCMV Towne; test: microbe, parasite or virus in culture; format: cell-based, human cytomegalovirus (HCMV)
Source text: A GCV-resistant pp28-luciferase HCMV strain, with a C607Y mutation in UL97 was also used. The recombinant viruses express luciferase under the control of the late CMV gene promoter, pp28. […] The recombinant viruses provide a highly-sensitive and reproducible reporter system which correlates with the classic plaque reduction assay. […] Human herpes virus strains were: luciferase HSV1-KOS/Dlux/oriS and clinical isolates of HSV2.
Cell culture, virus infection and anti-viral assays. […] Infection with HCMV or HSV was performed in HFFs, and infection with mouse CMV was performed in MEFs. For HCMV, cells were seeded in either a 96-well plate or 100 mm culture plates (Corning Costar, Sigma Aldrich) at 0.5 or 2 million cells/plate. Following 90 minute adsorption, media was removed and cells were washed with PBS. Media containing 4% FBS and compounds were added to each well. Infected treated HFFs were collected at 72 hpi and lysates were assayed for luciferase activity using a luciferase assay kit (Promega, Madison, WI) on GloMax®-Multi+Detection System (Promega). In second cycle assays, supernatants were collected from all conditions of the first cycle at 96 hpi and used for infection of fresh HFFs in 96-well-plates. […] For HSV1-KOS/Dlux/oriS, a luciferase assay was performed at 24 hpi. Plaque assays were performed with clinical isolates of HSV2 and HCMV Towne. […] Following virus adsorption (60 min and 90 min for HSV and HCMV, respectively), virus was aspirated, and DMEM containing 4% fetal bovine serum (FBS) with (for HSV) or without (for HCMV) 0.5% carboxymethyl-cellulose, were added with the compounds at indicated concentrations into triplicate wells. After incubation at 37° C. for 10 days (for HCMV) or 2 days (for HSV), the overlay was removed and plaques were counted after crystal violet staining.

[7] = tested on: pp28-luciferase HCMV Towne; test: Drug combination emetine + GCV, Bliss model; format: cell-based, human cytomegalovirus (HCMV); conditions: combined with ganciclovir (GCV), dihydrochloride hydrate
Method: Drug combination. The combined inhibitory effect of compounds on HCMV replication was determined in infected HFFs. A dose response curve was first generated for each compound; the EC50 and slope were calculated. […] The Bliss model was used for quantification of the effect of two compounds on HCMV replication (40). In this model, drug combination represents the product of two probabilistically independent events as described in the following equation (41): […]
The combined effect of two inhibitors (FU, fractional unaffected) is computed as the product of individual effects of the two inhibitors, FU1 and FU2. If the ratio of observed fold inhibition divided by the expected fold inhibition is greater than 1, the compounds are synergistic. If the ratio is less than 1, the combination is considered antagonistic, and if it equals to 1 the combination is additive.

malaria = conditions: 17 patients; 40 mg IM x 6 daily doses; cited from earlier work

## CC[C@H]1CN2CCc3cc(OC)c(OC)cc3[C@@H]2C[C@@H]1C[C@H]1NCCc2cc(OC)c(OC)cc21 [emetine, emetine dihydrochloride hydrate]
[1]; add-on
  time of addition after which activity against HCMV replication is lost: > 12 h
[1]; removal assay
  time compound is required to fully inhibit HCMV: at least 24 h
RPS14 and MDM2; 24 hpi, contact-inhibited infected cells, not cycling cells, MG132 present
  interaction between RPS14 and MDM2: strongly induced
RPS14 and MDM2; 72 hpi, contact-inhibited infected cells, emetine 75 nM
  HCMV-induced RPS14 expression: reduced
RPS14 and MDM2; 72 hpi, only in contact-inhibited cells, MG132
  ubiquitinated RPS14: increased
other
  tolerability in mice: well-tolerated
[2]
  inhibition of HSV-2: inhibited
[3]
  HCMV inhibition in RPS14 knockdown cells: unable to inhibit HCMV; also recorded: loss of HCMV inhibition
HCMV entry
  inhibition of viral entry: neither emetine nor GCV inhibited viral entry; also recorded: does not inhibit
HCMV Towne
  inhibition of HCMV by plaque reduction assay: further confirmed
HCMV Towne; 2 million cells/plate (p<0.001) as compared to 0.5 million cells/plate, emetine 75 nM
  reduction in the number and size of plaques: 30 fold
[4]
  CC50 at 72 h: 8 µM
[5]
  inhibition of GCV-resistant HCMV: inhibited
[6]; HFFs 0.5-2 million cells/plate, emetine 75 nM, GCV 5 μM
  HCMV inhibition in relation to cell density at time of infection: significant virus inhibition was observed only at higher cell density
[6]; Human betaherpesvirus 5, read-out: EC50 against HCMV
  EC50: 0.04 µM
[6]; emetine 75 nM, 0.5 million cells/plate in 96-well plate
  reduction in normalized luciferase activity at low cell density: no significant reduction
[6]; luciferase at 72 hpi
  concentration that fully inhibits HCMV: 75 nM
[7]
  combined effect of emetine and GCV on virus inhibition: synergistic virus inhibition
malaria
  treatment of malaria: successful treatment
